Common to all, as to format: cell-based
Assay [1] deals with Chrysosporium keratinophilum. The assay can be described thus: Agar plate disc-diffusion, antifungal inhibition zone. The settings on record: Sabouraud's dextrose agar, 72 hours. As for the experimental part:
(§1) The agar plate disc-diffusion method was applied. Sterilized filter papers (6 mm in diameter) were wetted with 10 μL of a solution of 4-((5-(3-fluorophenyl)-4-phenyl-4H-1,2,4-triazol-3-ylthio)methyl)benzoic acid (III) to be tested, containing 10 mg/mL in DMSO, and the discs were allowed to air dry. The discs were then placed onto the surface of agar plates (nutrient agar for bacteria and Sabouraud's dextrose agar for fungi) seeded with the test organism. Each plate contained 15 mL of the agar medium, previously seeded with 0.2 mL of the broth culture of each organism pregrown for 18 hours. The plates were incubated at 37° C. for 48 hours, and 72 hours for fungi. The inhibition zones were measured in mm. Discs impregnated with DMSO were used as a control, and its inhibition zone was subtracted from the tested compound actual inhibition zone.
(In agar diffusion tests the substance spreads into inoculated agar from a disc or well.)

Assay [2] relates to Escherichia coli. The assay can be described thus: Agar plate disc-diffusion, antibacterial inhibition zone. The settings on record: Escherichia coli (Gram negative), nutrient agar, 37° C., 48 hours. The protocol:
as §1

For assay [3], the system named is Pseudomonas aeruginosa. Described as above. Particulars: Pseudomonas aeruginosa (Gram negative), nutrient agar, 37° C., 48 hours. The protocol: as §1, with “Sterilized filter papers (6 mm in diameter) were wetted with 10 μL of a solution of 4-((5-(3-fluorophenyl)-4-phenyl-4H-1,2,4-triazol-3-ylthio)methyl)benzoic acid (III) to be tested, containing 10 mg/mL in DMSO, and the discs were allowed to air dry.” left out

Assay [4] has as its system Bacillus Cereus. The description is as above. Particulars: Bacillus Cereus (Gram positive), nutrient agar, 37° C., 48 hours. As for the experimental part: as §1, with “Sterilized filter papers (6 mm in diameter) were wetted with 10 μL of a solution of 4-((5-(3-fluorophenyl)-4-phenyl-4H-1,2,4-triazol-3-ylthio)methyl)benzoic acid (III) to be tested, containing 10 mg/mL in DMSO, and the discs were allowed to air dry.” left out

Assay [5] deals with Staphylococcus aureus. The description is as above. Particulars: Staphylococcus aureus (Gram positive), nutrient agar, 37° C., 48 hours. As for the experimental part: as §1, with “Sterilized filter papers (6 mm in diameter) were wetted with 10 μL of a solution of 4-((5-(3-fluorophenyl)-4-phenyl-4H-1,2,4-triazol-3-ylthio)methyl)benzoic acid (III) to be tested, containing 10 mg/mL in DMSO, and the discs were allowed to air dry.” left out

In assay [6] the test system is Aspergillus flavus. The assay can be described thus: Agar plate disc-diffusion, antifungal inhibition zone. Particulars: Sabouraud's dextrose agar, 72 hours. The protocol:
as §1, with “Sterilized filter papers (6 mm in diameter) were wetted with 10 μL of a solution of 4-((5-(3-fluorophenyl)-4-phenyl-4H-1,2,4-triazol-3-ylthio)methyl)benzoic acid (III) to be tested, containing 10 mg/mL in DMSO, and the discs were allowed to air dry.” left out

Where [7] appears, read: A = concentration of comp. = 10,000 μL.
Where [8] appears, read: B = concentration of comp. = 30,000 μL.
The mark [9] stands for this setting: C = concentration of comp. = 50,000 μL.

For `O=C(O)c1ccc(CSc2nnc(-c3cccc(F)c3)n2-c2ccccc2)cc1` [III, 4-((5-(3-fluorophenyl)-4-phenyl-4H-1,2,4-triazol-3-ylthio)methyl)benzoic acid], the inhibition zone amounted to 23 mm in assay [1] (setting [7]); 27 mm in assay [1] (setting [8]); 41 mm in assay [1] (setting [9]); 28 mm in assay [2] (setting [7]); 36 mm in assay [2] (setting [8]); 50 mm in assay [2] (setting [9]). Besides, the inhibition zone in assay [3] (setting [7]) is given as 22 mm; in assay [3] (setting [8]), 26 mm; in assay [3] (setting [9]), 37 mm; in assay [4] (setting [7]), 26 mm; in assay [4] (setting [8]), 28 mm; in assay [4] (setting [9]), 40 mm. The inhibition zone in assay [5] (setting [7]) is recorded as 19 mm; in assay [5] (setting [8]), 25 mm; in assay [5] (setting [9]), 35 mm; in assay [6] (setting [7]), 24 mm; in assay [6] (setting [8]), 26 mm; in assay [6] (setting [9]), 35 mm.
Take `O=C(O)c1cn(C2CC2)c2cc(N3CCNCC3)c(F)cc2c1=O` [Cip., ciprofloxacin]: the inhibition zone in assay [1] (setting [7]) worked out at 29 mm; in assay [1] (setting [8]), 30 mm; in assay [1] (setting [9]), 53 mm; in assay [2] (setting [7]), 30 mm; in assay [2] (setting [8]), 39 mm; in assay [2] (setting [9]), 60 mm. The inhibition zone in assay [3] (setting [7]) is listed as 29 mm; in assay [3] (setting [8]) it was 30 mm; in assay [3] (setting [9]), 53 mm; in assay [4] (setting [7]) it was 29 mm; in assay [4] (setting [8]), 30 mm; in assay [4] (setting [9]), 42 mm. For the same compound, the inhibition zone came to 43 mm in assay [5] (setting [7]); 44 mm in assay [5] (setting [8]); 53 mm in assay [5] (setting [9]); 29 mm in assay [6] (setting [7]); 30 mm in assay [6] (setting [8]); 42 mm in assay [6] (setting [9]).

The record behind these values is patent publication US11970466B1, “4-((5-(3-fluorophenyl)-4-phenyl-4H-1,2,4-triazol-3-ylthio)methyl)benzoic acid as an antimicrobial compound” (KING FAISAL UNIVERSITY, priority 2023, dated 2024).
